Reference: ChEMBL document CHEMBL3826902, “Synthesis and cytotoxic activities of semisynthetic zearalenone analogues” (Bioorg Med Chem Lett, 2016)
Active and inactive are the calls of the source. The rule behind the calls is not given here.

Columns and labels:
KB [1] = test: Cytotoxicity against human KB cells assessed as reduction in cell viability by resazurin microplate assay; format: functional, cell-based
MCF7 [2] = test: Cytotoxicity against human MCF7 cells assessed as reduction in cell viability by resazurin microplate assay; format: functional, cell-based
Vero [3] = test: Cytotoxicity against African green monkey Vero cells assessed as reduction in cell viability by green fluorescent protein-based assay; set-up: species or system Chlorocebus sabaeus
MCF7 [4] = test: Cytotoxicity against human MCF7 cells assessed as reduction in cell viability at >50 ug/ml by resazurin microplate assay; format: functional, cell-based
KB [5] = test: Cytotoxicity against human KB cells assessed as reduction in cell viability at >50 ug/ml by resazurin microplate assay; format: functional, cell-based
Vero [6] = test: Cytotoxicity against African green monkey Vero cells assessed as reduction in cell viability at >50 ug/ml by green fluorescent protein-based assay; details: Chlorocebus sabaeus
[7] = Cytotoxicity against human HL60 cells assessed as reduction in cell viability after 24 hrs by MTT assay; format: functional, cell-based; details: HL-60, 24 h
[8] = Homo sapiens, KB, read-out: IC50
[9] = Homo sapiens, MCF7, read-out: IC50
[10] = Chlorocebus sabaeus, Vero, read-out: IC50

SMILES	IC50 (KB [1]; [8])	IC50 (MCF7 [2]; [9])	IC50 (Vero [3]; [10])	IC50 (KB [1]; kb)	Activity (MCF7 [4])	IC50 (MCF7 [2]; mcf7)	Activity (KB [5])	Activity (Vero [6])	IC50 (Vero [3]; vero)	IC50 [7]
COc1cc(O)c2c(c1)/C=C/CCC[C@@H](O)CCC[C@H](C)OC2=O	104 µM	93.3 µM	53.1 µM							
C[C@H]1CCC[C@H](O)CCCCCc2cc(O)cc(O)c2C(=O)O1 [ZERANOL]			50 µM	Not Active	inactive	Not Active	inactive			
CC/C(=C(\c1ccccc1)c1ccc(OCCN(C)C)cc1)c1ccccc1 [TAMOXIFEN]		19.3 µM								
C[C@H]1CCCC(=O)CCCCCc2cc(O)cc(O)c2C(=O)O1 [ZEARALANONE]			151 µM	Not Active	inactive	Not Active	inactive			
COc1cc(O)c2c(c1)/C=C/CCC[C@H](O)CCC[C@H](C)OC2=O	56 µM				inactive	Not Active		Non-toxic	Not Active	
COc1cc(O)c2c(c1Cl)/C=C/CCCC(=O)CCC[C@H](C)OC2=O	108 µM		51.4 µM		inactive	Not Active				
CCC(=O)Oc1cc(O)c2c(c1)/C=C/CCC[C@H](O)CCC[C@H](C)OC2=O	33.4 µM		35 µM		inactive	Not Active				
COc1cc(O)c2c(c1)CCCCCC(=O)CCC[C@H](C)OC2=O				Not Active	inactive	Not Active	inactive	Non-toxic	Not Active	
COc1cc2c(c(OC)c1)C(=O)O[C@@H](C)CCC[C@H](O)CCCCC2				Not Active	inactive	Not Active	inactive	Non-toxic	Not Active	
CCOc1cc(O)c2c(c1)/C=C/CCC[C@H](O)CCC[C@H](C)OC2=O	60.1 µM	70.2 µM	45.3 µM							
COc1cc2c(c(OC)c1)C(=O)O[C@@H](C)CCC[C@@H](O)CCCCC2				Not Active	inactive	Not Active	inactive	Non-toxic	Not Active	
COc1cc2c(c(OC)c1)C(=O)O[C@@H](C)CCCC(=O)CCC/C=C/2				Not Active	inactive	Not Active	inactive	Non-toxic	Not Active	
COc1cc2c(c(OC)c1)C(=O)O[C@@H](C)CCCC(=O)CCCCC2				Not Active	inactive	Not Active	inactive	Non-toxic	Not Active	
CC(=O)Oc1cc(O)c2c(c1)/C=C/CCCC(=O)CCC[C@H](C)OC2=O	52.9 µM		134 µM		inactive	Not Active				
COc1cc2c(c(OC)c1)C(=O)O[C@@H](C)CCC[C@H](O)CCC/C=C/2				Not Active	inactive	Not Active	inactive	Non-toxic	Not Active	
CC(=O)Oc1cc(O)c2c(c1)/C=C/CCC[C@H](O)CCC[C@H](C)OC2=O	48.9 µM		13.6 µM		inactive	Not Active				
C[C@H]1CCC[C@@H](O)CCC/C=C/c2cc(O)cc(O)c2C(=O)O1			25.4 µM	Not Active	inactive	Not Active	inactive			
CCC(=O)Oc1cc(O)c2c(c1)/C=C/CCCC(=O)CCC[C@H](C)OC2=O	52.4 µM		44.1 µM		inactive	Not Active				
COc1cc(OC)c2c(c1Cl)/C=C/CCCC(=O)CCC[C@H](C)OC2=O				Not Active	inactive	Not Active	inactive	Non-toxic	Not Active	

SMILES	IC50 (KB [1]; [8])	IC50 (MCF7 [2]; [9])	IC50 (Vero [3]; [10])	IC50 (KB [1]; kb)	Activity (MCF7 [4])	IC50 (MCF7 [2]; mcf7)	Activity (KB [5])	Activity (Vero [6])	IC50 (Vero [3]; vero)	IC50 [7]
C[C@H]1CCC[C@H](O)CCC/C=C/c2cc(O)cc(O)c2C(=O)O1	100 µM		60.3 µM		inactive	Not Active				
C[C@H]1CCCC(=O)CCC/C=C/c2c(Cl)c(O)cc(O)c2C(=O)O1	89.9 µM		140 µM		inactive	Not Active				
CCCOc1cc(O)c2c(c1)/C=C/CCC[C@H](O)CCC[C@H](C)OC2=O	83.4 µM	81.9 µM	53.3 µM							
C[C@H]1CCC[C@@H](O)CCCCCc2cc(O)cc(O)c2C(=O)O1 [TALERANOL]			22.6 µM	Not Active	inactive	Not Active	inactive			
COc1cc(O)c2c(c1)CCCCC[C@@H](O)CCC[C@H](C)OC2=O				Not Active	inactive	Not Active	inactive	Non-toxic	Not Active	
Cc1c2ccncc2c(C)c2c1[nH]c1ccccc12 [ELLIPTECINE]	8.28 µM		4.26 µM							
CCOc1cc(O)c2c(c1)/C=C/CCC[C@@H](O)CCC[C@H](C)OC2=O	66.9 µM	61.8 µM						Non-toxic	Not Active	
CCC(=O)Oc1cc(O)c2c(c1)/C=C/CCC[C@@H](O)CCC[C@H](C)OC2=O	85.7 µM		129 µM		inactive	Not Active				
CCCCCCCCOc1cc(O)c2c(c1)/C=C/CCC[C@@H](O)CCC[C@H](C)OC2=O	40.9 µM	75.2 µM	24.2 µM							
CCC(=O)Oc1cc2c(c(OC(=O)CC)c1)C(=O)O[C@@H](C)CCCC(=O)CCC/C=C/2				Not Active	inactive	Not Active	inactive	Non-toxic	Not Active	
COc1cc2c(c(OC)c1)C(=O)O[C@@H](C)CCC[C@@H](O)CCC/C=C/2				Not Active	inactive	Not Active	inactive	Non-toxic	Not Active	
CCCOc1cc(O)c2c(c1)/C=C/CCC[C@@H](O)CCC[C@H](C)OC2=O	35.7 µM	43.8 µM	26.2 µM							
C[C@H]1CCCC(=O)CCC/C=C/c2cc(O)cc(O)c2C(=O)O1 [ZEARALENONE]	46.3 µM	105 µM	40.6 µM							138 µM
COc1cc(O)c2c(c1)/C=C/CCCC(=O)CCC[C@H](C)OC2=O				Not Active	inactive	Not Active	inactive	Non-toxic	Not Active	
COc1cccc2c1C(=O)c1c(O)c3c(c(O)c1C2=O)C[C@@](O)(C(=O)CO)C[C@@H]3O[C@H]1C[C@H](N)[C@H](O)[C@H](C)O1 [DOXORUBICIN]	1.06 µM									
CCCCCCCCOc1cc(O)c2c(c1)/C=C/CCC[C@H](O)CCC[C@H](C)OC2=O	82.2 µM	93.6 µM	73.4 µM							
COc1cc(O)c2c(c1)CCCCC[C@H](O)CCC[C@H](C)OC2=O			148 µM	Not Active	inactive	Not Active	inactive			
CC(=O)Oc1cc2c(c(OC(C)=O)c1)C(=O)O[C@@H](C)CCCC(=O)CCC/C=C/2	59.7 µM		48 µM		inactive	Not Active				
CC(=O)Oc1cc(O)c2c(c1)/C=C/CCC[C@@H](O)CCC[C@H](C)OC2=O	51.6 µM	89 µM	136 µM							
